# Source: US10065990B2, “Cyclic peptide compound, and preparation method, pharmaceutical composition and use thereof” (HANGZHOU GUANYU BIO-MEDICAL CO., LTD, priority 2013, dated 2018)
# Like-named read-outs stand apart in the source and are kept apart here.
# How the values were obtained:
# HDAC11 = molecular target: T1, HDAC11 (Homo sapiens, UniProt Q96DB2); assay: HDAC biochemical activity measurement (fluorescent substrate deacetylation);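 further: HDAC11 enzyme acting on an acetyl-lysine fluorogenic substrate, then a developer frees the fluorophore, read at excitation 360 nm and emission 460 nm, IC50 over a compound dilution series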; conditions: read-out: IC50 HDAC11; HDAC11; 37° C. 30 minutes
# T1 sequence (Q96DB2 1-347): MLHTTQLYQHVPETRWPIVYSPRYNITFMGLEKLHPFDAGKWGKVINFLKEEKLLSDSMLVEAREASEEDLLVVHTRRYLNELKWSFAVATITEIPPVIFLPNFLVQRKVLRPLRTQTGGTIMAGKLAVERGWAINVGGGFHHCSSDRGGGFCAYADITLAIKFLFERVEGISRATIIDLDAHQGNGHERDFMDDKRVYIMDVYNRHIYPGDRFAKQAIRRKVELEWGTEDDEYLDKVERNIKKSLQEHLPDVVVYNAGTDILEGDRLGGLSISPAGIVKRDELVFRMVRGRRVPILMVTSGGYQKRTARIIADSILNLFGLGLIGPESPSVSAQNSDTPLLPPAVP
# [1] = system: Hela (human cervical cancer cells); assay: MTT cancer cell growth inhibition; type: cell-based; conditions: MTT
# Procedure, shortened: (§1)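 Read-out was formazan absorbance at 570 nm after a 4 h MTT step and DMSO solubilisation, converted to cell viability and fitted for GI50. Beforehand, cells (1500/well, overnight attachment) were treated with compound at 10^−5 to 10^−10 M for 72 h at 37° C.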
# [2] = system: N-87 (human gastric cancer cells); assay: MTT cancer cell growth inhibition; type: cell-based; conditions: MTT, 72 hours incubation, N-87 cells, read-out: GI50 N-87
# Procedure, shortened: as §1
# [3] = system: DU145 (human prostate cancer cells); assay: MTT cancer cell growth inhibition; type: cell-based; conditions: MTT
# Procedure, shortened: as §1
# [4] = system: MCF-7 (human breast cancer cells); assay: MTT cancer cell growth inhibition; type: cell-based
# Procedure, shortened: as §1
# [5] = system: SGC-7901 (human gastric cancer cells); assay: MTT cancer cell growth inhibition; type: cell-based; conditions: MTT, 72 hours incubation, SGC-7901 cells, read-out: GI50 SGC-7901
# Procedure, shortened: as §1
# [6] = system: MOLT-4 (human acute lymphoblastic leukemia cells); assay: MTT cancer cell growth inhibition; type: cell-based; conditions: MTT
# Procedure, shortened: as §1
# [7] = system: HT1080 (human fibrosarcoma cells); assay: MTT cancer cell growth inhibition; type: cell-based; conditions: MTT
# Procedure, shortened: as §1
# [8] = system: Huh-7 (human hepatoma cells); assay: MTT cancer cell growth inhibition; type: cell-based; conditions: MTT, 72 hours incubation, Huh-7 cells, read-out: GI50 Huh-7
# Procedure, shortened: as §1
# [9] = system: PANC-1 (Pac-1, human pancreatic cancer cells); assay: MTT cancer cell growth inhibition; type: cell-based; conditions: MTT
# Procedure, shortened: as §1
# [10] = system: HCC827 (human non-small cell lung cancer cells); assay: MTT cancer cell growth inhibition; type: cell-based; conditions: MTT, 72 hours incubation, HCC827 cells, read-out: GI50 HCC827
# Procedure, shortened: as §1
# [11] = system: A549 (human lung cancer cells); assay: MTT cancer cell growth inhibition; type: cell-based; conditions: MTT
# Procedure, shortened: as §1
# [12] = system: Bel-7402 (human hepatoma cells); assay: MTT cancer cell growth inhibition; type: cell-based; conditions: MTT, 72 hours incubation, Bel-7402 cells, read-out: GI50 Bel-7402
# Procedure, shortened: as §1
# [13] = system: U937 (human leukemia cells); assay: MTT cancer cell growth inhibition; type: cell-based; conditions: MTT
# Procedure, shortened: as §1
# [14] = system: MDA-MB-231 (breast cancer cells); assay: MTT cancer cell growth inhibition; type: cell-based
# Procedure, shortened: as §1
# [15] = system: BGC-823 (human gastric cancer cells); assay: MTT cancer cell growth inhibition; type: cell-based; conditions: MTT
# Procedure, shortened: as §1
# HDAC8 = molecular target: T2, HDAC8 (Homo sapiens, UniProt Q9BY41); assay: HDAC biochemical activity measurement (fluorescent substrate deacetylation); conditions: 37° C. 30 minutes
# T2 sequence (Q9BY41 1-377): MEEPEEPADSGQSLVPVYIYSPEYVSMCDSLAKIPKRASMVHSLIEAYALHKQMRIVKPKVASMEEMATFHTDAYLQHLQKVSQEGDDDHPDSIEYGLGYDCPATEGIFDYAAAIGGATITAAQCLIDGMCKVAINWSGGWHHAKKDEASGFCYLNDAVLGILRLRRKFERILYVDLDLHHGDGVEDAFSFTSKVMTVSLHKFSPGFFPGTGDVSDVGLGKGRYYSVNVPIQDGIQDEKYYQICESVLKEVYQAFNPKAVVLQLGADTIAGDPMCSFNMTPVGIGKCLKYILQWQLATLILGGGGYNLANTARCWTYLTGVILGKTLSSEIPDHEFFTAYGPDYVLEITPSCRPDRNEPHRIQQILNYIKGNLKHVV
# HDAC1 = HDAC1 (Homo sapiens, UniProt Q13547); assay: as above
# HDAC1, sequence (Q13547 whole entry, species assumed): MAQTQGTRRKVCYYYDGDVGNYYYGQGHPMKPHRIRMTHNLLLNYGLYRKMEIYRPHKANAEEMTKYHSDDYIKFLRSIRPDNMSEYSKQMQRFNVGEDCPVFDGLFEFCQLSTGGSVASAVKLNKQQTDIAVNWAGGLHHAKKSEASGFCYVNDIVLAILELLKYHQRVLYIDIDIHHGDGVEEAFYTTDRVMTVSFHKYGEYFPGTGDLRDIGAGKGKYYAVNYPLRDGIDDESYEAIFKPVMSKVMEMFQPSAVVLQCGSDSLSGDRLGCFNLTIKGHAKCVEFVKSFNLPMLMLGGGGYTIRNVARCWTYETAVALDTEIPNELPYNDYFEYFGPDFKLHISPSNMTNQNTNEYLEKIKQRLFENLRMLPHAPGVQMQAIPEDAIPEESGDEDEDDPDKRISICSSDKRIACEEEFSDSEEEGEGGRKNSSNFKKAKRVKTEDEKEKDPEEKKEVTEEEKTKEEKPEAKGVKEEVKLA
# [16] = Homo sapiens, HeLa, 72 h, Hela cells, 72 hours incubation, read-out: GI50 Hela
# [17] = Homo sapiens, HeLa, 72 h, 72 hours, present invention, read-out: GI50 Hela, a
# [18] = Homo sapiens, DU-145, 72 h, DU145 cells, 72 hours incubation, read-out: GI50 Du1
# [19] = Homo sapiens, DU-145, 72 h, 72 hours, present invention, read-out: GI50 Du145, a
# [20] = Homo sapiens, MCF7, 72 h, 72 hours, present invention, read-out: GI50 MCF7, a
# [21] = Homo sapiens, MCF7, 72 h, MCF-7 cells, 72 hours incubation, read-out: GI50 MCF
# [22] = Homo sapiens, MOLT-4, 72 h, 72 hours, present invention, read-out: GI50 Molt-4, a
# [23] = Homo sapiens, HT-1080, 72 h, HT1080 cells, 72 hours incubation, read-out: GI50 HT1
# [24] = Homo sapiens, HT-1080, 72 h, 72 hours, present invention, read-out: GI50 HT1080, a
# [25] = Homo sapiens, PANC-1, 72 h, 72 hours, present invention, read-out: GI50 PANC-1, a
# [26] = Homo sapiens, PANC-1, 72 h, PANC-1 cells, 72 hours incubation, read-out: GI50 PAN
# [27] = Homo sapiens, A549, 72 h, A549 cells, 72 hours incubation, read-out: GI50 A54
# [28] = Homo sapiens, A549, 72 h, 72 hours, present invention, read-out: GI50 A549, a
# [29] = Homo sapiens, U-937, 72 h, 72 hours, present invention, read-out: GI50 U937, a
# [30] = Homo sapiens, U-937, 72 h, U937 cells, 72 hours incubation, read-out: GI50 U93
# [31] = Homo sapiens, MDA-MB-231, 72 h, read-out: GI50 MDA-MB-231, MTT, 72 hours incubation, MDA-MB-231 cells
# [32] = Homo sapiens, BGC-823, 72 h, BGC-823 cells, 72 hours incubation, read-out: GI50 BG
# [33] = Homo sapiens, BGC-823, 72 h, 72 hours, present invention, read-out: GI50 BGC823, a
# [34] = HDAC1, 37° C. 30 minutes, read-out: IC50 HDAC1
# [35] = Table 2, read-out: IC50 HDAC1, a (compounds of the present invention)
# [36] = Homo sapiens, HeLa, 72 h, 72 hours incubation, read-out: GI50 Hela
# [37] = Homo sapiens, DU-145, 72 h, 72 hours incubation, read-out: GI50 Du1
# [38] = Homo sapiens, MCF7, 72 h, 72 hours incubation, read-out: GI50 MCF
# [39] = Homo sapiens, MOLT-4, 72 h, 72 hours incubation, read-out: GI50 Mol
# [40] = Homo sapiens, HT-1080, 72 h, 72 hours incubation, read-out: GI50 HT1
# [41] = Homo sapiens, PANC-1, 72 h, 72 hours incubation, read-out: GI50 PAN
# [42] = Homo sapiens, A549, 72 h, 72 hours incubation, read-out: GI50 A54
# [43] = Homo sapiens, U-937, 72 h, 72 hours incubation, read-out: GI50 U93
# [44] = Homo sapiens, BGC-823, 72 h, 72 hours incubation, read-out: GI50 BG
# [45] = Table 3, read-out: IC50 HDAC1, D (non-substituent)
# 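Wherever IC50 HDAC1 is given: fluorogenic acetyl-lysine substrate (20 µM) deacetylated by HDAC1, then developer releases fluorophore read at 360 nm excitation and 460 nm emission, inhibitor incubated 30 min at 37 °C.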
# 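Wherever IC50 HDAC1, D (non-substituent) is given: fluorogenic acetyl-lysine substrate (20 µM) deacetylated by HDAC1, then developer releases fluorophore read at 360 nm excitation and 460 nm emission, inhibitor incubated 30 min at 37 °C.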
# 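Wherever IC50 HDAC1, a (compounds of the present invention) is given: fluorogenic acetyl-lysine substrate (20 µM) deacetylated by HDAC1, then developer releases fluorophore read at 360 nm excitation and 460 nm emission, inhibitor incubated 30 min at 37 °C.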
IC50 (HDAC11),"GI50 [1, 16]","GI50 [1, 17]","GI50 ([2]; Homo sapiens, 72 h)","GI50 [3, 18]","GI50 [3, 19]","GI50 [4, 20]","GI50 [4, 21]","GI50 ([5]; Homo sapiens, SGC-7901, 72 h)","GI50 [6, 22]","GI50 [7, 23]","GI50 [7, 24]","GI50 ([8]; Homo sapiens, Huh-7, 72 h)","GI50 [9, 25]","GI50 [9, 26]","GI50 ([10]; Homo sapiens, HCC827, 72 h)","GI50 ([12]; Homo sapiens, Bel-7402, 72 h)","GI50 [14, 31]",IC50 (HDAC8),IC50 (HDAC1; [34]),Structure (SMILES),further results
77 nM,880 nM,880 nM,58 nM,40 nM,40 nM,350 nM,350 nM,33 nM,970 nM,990 nM,990 nM,49 nM,930 nM,930 nM,25 nM,42 nM,12 nM,43 nM,72 nM,C/C=C1\NC(=O)c2cccc(n2)CNC(=O)C[C@@H](/C=C/CCSC(=O)CCCCCCC)OC(=O)[C@H](C(C)(C)C)NC1=O [Compound 237],"GI50 ([6]; Homo sapiens, MOLT-4, 72 h, MOLT-4 cells, 72 hours incubation, read-out: GI50 Mol): 970 nM; GI50 [11, 27]: 420 nM; GI50 [11, 28]: 420 nM; GI50 [13, 29]: 110 nM; GI50 [13, 30]: 110 nM; GI50 [15, 32]: 170 nM; GI50 [15, 33]: 170 nM; IC50 (HDAC1; [35]): < 80 nM"
89 nM,,,,,,,,,,,,,,,,,,61 nM,61 nM,C/C=C1\NC(=O)c2nc(F)cc(n2)CNC(=O)C[C@@H](/C=C/CCSC(C)=O)OC(=O)[C@H](C(C)C)NC1=O [Compound 98],"GI50 ([1]; 72 hours incubation, read-out: GI50 Hela): 50 nM; GI50 [2]: 21 nM; GI50 ([3]; 72 hours incubation, read-out: GI50 Du1): 40 nM; GI50 ([4]; 72 hours incubation, read-out: GI50 MCF): 30 nM; GI50 [5]: 36 nM; GI50 ([6]; 72 hours incubation, read-out: GI50 Mol): 20 nM; GI50 ([7]; 72 hours incubation, read-out: GI50 HT1): 80 nM; GI50 [8]: 28 nM; GI50 ([9]; 72 hours incubation, read-out: GI50 PAN): 80 nM; GI50 [10]: 35 nM; GI50 ([11]; 72 hours incubation, read-out: GI50 A54): 600 nM; GI50 [12]: 43 nM; GI50 ([13]; 72 hours incubation, read-out: GI50 U93): 30 nM; GI50 ([14]; read-out: GI50 MDA-MB-231, MTT, 72 hours incubation, MDA-MB-231 cells): 37 nM; GI50 ([15]; 72 hours incubation, read-out: GI50 BG): 50 nM"
65 nM,50 nM,55 nM,26 nM,10 nM,12 nM,23 nM,20 nM,56 nM,8 nM,20 nM,26 nM,55 nM,77 nM,70 nM,29 nM,31 nM,46 nM,78 nM,44 nM,C/C=C1\NC(=O)c2cccc(n2)CNC(=O)C[C@@H](/C=C/CCSC(=O)CCCCCCC)OC(=O)[C@H](c2ccc(O)cc2)NC1=O [Compound 238],"GI50 [11, 27]: 10 nM; GI50 [11, 28]: 16 nM; GI50 [13, 29]: 15 nM; GI50 [13, 30]: 10 nM; GI50 [15, 32]: 140 nM; GI50 [15, 33]: 140 nM; IC50 (HDAC1; [35]): < 50 nM"
94 nM,,,31 nM,,,,,42 nM,,,,85 nM,,,29 nM,85 nM,81 nM,159 nM,187 nM,C/C=C1\NC(=O)c2cccc(n2)CNC(=O)C[C@@H](/C=C/CCSC(C)=O)OC(=O)[C@H](Cc2ccccc2)NC1=O [Compound 13],"GI50 [1, 36]: 90 nM; GI50 [3, 37]: 20 nM; GI50 [4, 38]: 300 nM; GI50 [6, 39]: 20 nM; GI50 [7, 40]: 200 nM; GI50 [9, 41]: 70 nM; GI50 [11, 42]: 50 nM; GI50 [13, 43]: 80 nM; GI50 [15, 44]: 100 nM; IC50 (HDAC1; [45]): 187 nM"
106 nM,,,29 nM,,,,,53 nM,,,,73 nM,,,51 nM,86 nM,91 nM,43 nM,191 nM,C/C=C1\NC(=O)c2cccc(n2)CNC(=O)C[C@@H](/C=C/CCSC(C)=O)OC(=O)[C@H](CCCCN)NC1=O [Compound 15],"GI50 [1, 36]: 15700 nM; GI50 [3, 37]: 480 nM; GI50 [4, 38]: 19800 nM; GI50 [6, 39]: 19700 nM; GI50 [7, 40]: 38700 nM; GI50 [9, 41]: 2580 nM; GI50 [11, 42]: 2300 nM; GI50 [13, 43]: 1120 nM; GI50 [15, 44]: 1220 nM; IC50 (HDAC1; [45]): 191 nM"
